Biological target: Kv1.5 (Homo sapiens, UniProt P22460)
Assay: Kv1.5 inhibition assay (IKur inhibitor assay per cited references)
Format: cell-based
Conditions: for Kv1.5% inhibition / inhibition at 0.3 µM: at 0.3 μM; for IC50: read-out: Kv1.5 IC50
Source text: Assays to determine the degree of activity of a compound as an IKur inhibitor are well known in the art and are described in references such as J. Gen. Physiol. Apr.; 101 (4):513-43, and Br. J. Pharmacol. 1995 May; 115(2):267-74.

Sequence of Kv1.5 (P22460 whole entry): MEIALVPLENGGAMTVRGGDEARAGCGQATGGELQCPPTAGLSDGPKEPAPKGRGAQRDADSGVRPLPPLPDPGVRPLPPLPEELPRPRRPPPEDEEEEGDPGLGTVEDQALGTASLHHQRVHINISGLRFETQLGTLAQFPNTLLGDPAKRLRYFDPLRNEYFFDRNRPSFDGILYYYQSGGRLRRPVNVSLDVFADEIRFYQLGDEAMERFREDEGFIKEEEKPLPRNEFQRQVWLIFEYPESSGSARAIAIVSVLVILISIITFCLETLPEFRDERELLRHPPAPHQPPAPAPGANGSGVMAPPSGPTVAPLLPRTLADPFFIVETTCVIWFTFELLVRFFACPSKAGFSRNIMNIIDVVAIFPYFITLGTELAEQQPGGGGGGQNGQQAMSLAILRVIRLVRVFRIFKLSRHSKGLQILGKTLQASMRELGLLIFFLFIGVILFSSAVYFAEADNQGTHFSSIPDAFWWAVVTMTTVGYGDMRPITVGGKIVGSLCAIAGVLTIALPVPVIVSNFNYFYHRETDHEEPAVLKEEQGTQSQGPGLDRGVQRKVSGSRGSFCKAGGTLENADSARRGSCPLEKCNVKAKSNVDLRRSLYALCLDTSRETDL

Row | SMILES | Kv1.5% inhibition | inhibition at 0.3 µM | also measured
1 | COc1cccc(S(=O)(=O)C2=C(C)Nc3cc(C(F)(F)F)nn3C2c2ccc(Cl)cc2)c1 (single isomer, unassigned) [Example 40 Isomer 2, 7-(4-Chlorophenyl)-6-(3-methoxyphenylsulfonyl)-5-methyl-2-(trifluoromethyl)-4,7-dihydropyrazolo[1,5-a]pyrimidine] | 74.4% | – | –
2 | CCN(C(=O)C1=C(C)Nc2cc(C)nn2C1c1ccc(Cl)c(Cl)c1)S(=O)(=O)c1c(C)noc1C (single isomer, unassigned) [Example 97 Isomer 1, 7-(3,4-Dichlorophenyl)-N-(3,5-dimethylisoxazol-4-ylsulfonyl)-N-ethyl-2,5-dimethyl-4,7-dihydropyrazolo[1,5-a]pyrimidine-6-carboxamide] | 91% | – | –
3 | CC1=C(C(=O)N(C)S(=O)(=O)c2ccc(F)cc2)C(c2ccc(Cl)c(Cl)c2)n2nc(C)cc2N1 (single isomer, unassigned) [Example 80 Isomer 1, 7-(3,4-Dichlorophenyl)-N-(4-fluorophenylsulfonyl)-N,2,5-trimethyl-4,7-dihydropyrazolo[1,5-a]pyrimidine-6-carboxamide] | 37% | – | –
4 | CC1=C(S(=O)(=O)c2ccc(Cl)cc2)C(c2ccc(Cl)c(Cl)c2)n2nccc2N1 (single isomer, unassigned) [Example 2 Isomer 1, 6-(4-Chlorophenylsulfonyl)-7-(3,4-dichlorophenyl)-5-methyl-4,7-dihydropyrazolo[1,5-a]pyrimidine] | – | – | IC50: 92 nM
5 | CCCCS(=O)(=O)C1=C(C)Nc2cc(C)nn2C1c1ccc(Cl)c(Cl)c1 (single isomer, unassigned) [Example 18 Isomer 1, 6-(Butylsulfonyl)-7-(3,4-dichlorophenyl)-2,5-dimethyl-4,7-dihydropyrazolo[1,5-a]pyrimidine] | 84.6% | – | –
6 | Cc1nc2cc(C(F)(F)F)nn2c(-c2ccc(Cl)c(Cl)c2)c1C(=O)N(C)S(=O)(=O)c1ccccc1 (racemic) [Example 92, 7-(3,4-Dichlorophenyl)-N,5-dimethyl-N-(phenylsulfonyl)-2-(trifluoromethyl)pyrazolo[1,5-a]pyrimidine-6-carboxamide] | – | 41% | –
7 | CCN(CC)S(=O)(=O)C1=C(C)Nc2cc(C)nn2C1c1ccc(Cl)c(Cl)c1 (single isomer, unassigned) [Example 61 Isomer 2, 7-(3,4-Dichlorophenyl)-N,N-diethyl-2,5-dimethyl-4,7-dihydropyrazolo[1,5-a]pyrimidine-6-sulfonamide] | 42.3% | – | –
8 | CC1=C(C(=O)N(C)S(=O)(=O)c2c(C)noc2C)C(c2ccc(Cl)c(Cl)c2)n2nc(C(F)(F)F)cc2N1 (single isomer, unassigned) [Example 95 Isomer 1, 7-(3,4-Dichlorophenyl)-N-(3,5-dimethylisoxazol-4-ylsulfonyl)-N,5-dimethyl-2-(trifluoromethyl)-4,7-dihydropyrazolo[1,5-a]pyrimidine-6-carboxamide] | – | 91% | –
9 | CC1=C(S(=O)(=O)Cc2ccccc2)C(c2ccc(Cl)c(Cl)c2)n2nc(C(F)(F)F)cc2N1 (racemic) [Example 16, 6-(Benzylsulfonyl)-7-(3,4-dichlorophenyl)-5-methyl-2-(trifluoromethyl)-4,7-dihydropyrazolo[1,5-a]pyrimidine] | – | 37.2% | –
10 | CC1=C(S(=O)(=O)c2ccc(F)cc2)C(c2ccc(Cl)c(Cl)c2)n2nc(C)cc2N1 (single isomer, unassigned) [Example 1 Isomer 1, 7-(3,4-Dichlorophenyl)-6-(4-fluorophenylsulfonyl)-2,5-dimethyl-4,7-dihydropyrazolo[1,5-a]pyrimidine] | 98% | – | –
11 | CC1=C(C(=O)N(C)S(=O)(=O)c2c(C)noc2C)C(c2ccc(Cl)c(Cl)c2)n2nc(C(F)(F)F)cc2N1 (single isomer, unassigned) [Example 95 Isomer 2, 7-(3,4-Dichlorophenyl)-N-(3,5-dimethylisoxazol-4-ylsulfonyl)-N,5-dimethyl-2-(trifluoromethyl)-4,7-dihydropyrazolo[1,5-a]pyrimidine-6-carboxamide] | 71% | – | –
12 | CC1=C(C(=O)N(C)S(=O)(=O)c2ccccc2)C(c2ccc(Cl)c(Cl)c2)n2nc(C(F)(F)F)cc2N1 (single isomer, unassigned) [Example 90 Isomer 1, 7-(3,4-Dichlorophenyl)-N,5-dimethyl-N-(phenylsulfonyl)-2-(trifluoromethyl)-4,7-dihydropyrazolo[1,5-a]pyrimidine-6-carboxamide] | – | 37% | –
13 | CCN(CC)S(=O)(=O)C1=C(C)Nc2cc(C(F)(F)F)nn2C1c1ccc(Cl)c(Cl)c1 (single isomer, unassigned) [Example 64 Isomer 1, 7-(3,4-Dichlorophenyl)-N,N-diethyl-5-methyl-2-(trifluoromethyl)-4,7-dihydropyrazolo[1,5-a]pyrimidine-6-sulfonamide] | – | 76.2% | –
14 | CCN(CC)S(=O)(=O)C1=C(C)Nc2cc(C(F)(F)F)nn2C1c1ccc(Cl)c(Cl)c1 (single isomer, unassigned) [Example 64 Isomer 2, 7-(3,4-Dichlorophenyl)-N,N-diethyl-5-methyl-2-(trifluoromethyl)-4,7-dihydropyrazolo[1,5-a]pyrimidine-6-sulfonamide] | 60% | – | –
15 | CC1=C(S(=O)(=O)c2ccc(Cl)cc2)C(c2ccc(C)cc2)n2nc(C(F)(F)F)cc2N1 (racemic) [Example 34, 6-(4-Chlorophenylsulfonyl)-5-methyl-7-p-tolyl-2-(trifluoromethyl)-4,7-dihydropyrazolo[1,5-a]pyrimidine] | – | 37.6% | –
16 | CC1=C(S(=O)(=O)c2ccc(C)cc2)C(c2ccc(Cl)cc2)n2nc(C(F)(F)F)cc2N1 (single isomer, unassigned) [Example 28 Isomer 1, 7-(4-Chlorophenyl)-5-methyl-6-tosyl-2-(trifluoromethyl)-4,7-dihydropyrazolo[1,5-a]pyrimidine] | – | 77.4% | –
17 | CC1=C(S(=O)(=O)c2ccccc2)C(c2ccc(Cl)c(Cl)c2)n2nc(C)cc2N1 (single isomer, unassigned) [Example 3 Isomer 1, 7-(3,4-Dichlorophenyl)-2,5-dimethyl-6-(phenylsulfonyl)-4,7-dihydropyrazolo[1,5-a]pyrimidine] | – | – | IC50: 41 nM
18 | CC1=C(C(=O)N(C)S(=O)(=O)c2c(C)noc2C)C(c2ccc(Cl)c(Cl)c2)n2nc(C)cc2N1 (single isomer, unassigned) [Example 94 Isomer 2, 7-(3,4-Dichlorophenyl)-N-(3,5-dimethylisoxazol-4-ylsulfonyl)-N,2,5-trimethyl-4,7-dihydropyrazolo[1,5-a]pyrimidine-6-carboxamide] | 63% | – | –
19 | CC1=C(S(=O)(=O)NC(C)(C)C)C(c2ccc(Cl)cc2)n2nc(C(F)(F)F)cc2N1 (single isomer, unassigned) [Example 57 Isomer 2, N-tert-Butyl-7-(4-chlorophenyl)-5-methyl-2-(trifluoromethyl)-4,7-dihydropyrazolo[1,5-a]pyrimidine-6-sulfonamide] | 36.9% | – | –
20 | CC1=C(S(=O)(=O)N2CCCCC2)C(c2ccc(Cl)c(Cl)c2)n2nc(C(F)(F)F)cc2N1 (single isomer, unassigned) [Example 65 Isomer 2, 7-(3,4-Dichlorophenyl)-5-methyl-6-(piperidin-1-ylsulfonyl)-2-(trifluoromethyl)-4,7-dihydropyrazolo[1,5-a]pyrimidine] | 78% | – | –
21 | COc1cccc(S(=O)(=O)C2=C(C)Nc3cc(C(F)(F)F)nn3C2c2ccc(Cl)cc2)c1 (single isomer, unassigned) [Example 40 Isomer 1, 7-(4-Chlorophenyl)-6-(3-methoxyphenylsulfonyl)-5-methyl-2-(trifluoromethyl)-4,7-dihydropyrazolo[1,5-a]pyrimidine] | – | 94.4% | –
22 | CC1=C(S(=O)(=O)C2CCCCC2)C(c2ccc(Cl)c(Cl)c2)n2nc(C)cc2N1 (single isomer, unassigned) [Example 10 Isomer 1, 6-(Cyclohexylsulfonyl)-7-(3,4-dichlorophenyl)-2,5-dimethyl-4,7-dihydropyrazolo[1,5-a]pyrimidine] | – | – | IC50: 77 nM
23 | CC1=C(S(=O)(=O)Cc2ccccc2)C(c2ccc(Cl)c(Cl)c2)n2nc(C)cc2N1 (racemic) [Example 14, 6-(Benzylsulfonyl)-7-(3,4-dichlorophenyl)-2,5-dimethyl-4,7-dihydropyrazolo[1,5-a]pyrimidine] | – | 50.4% | –
24 | COc1ccc(S(=O)(=O)C2=C(C)Nc3cc(C(F)(F)F)nn3C2c2ccc(Cl)cc2)cc1OC (single isomer, unassigned) [Example 51 Isomer 2, 7-(4-Chlorophenyl)-6-(3,4-dimethoxyphenylsulfonyl)-5-methyl-2-(trifluoromethyl)-4,7-dihydropyrazolo[1,5-a]pyrimidine] | 79.2% | – | –
25 | CC1=C(S(=O)(=O)c2ccccn2)C(c2ccc(Cl)c(Cl)c2)n2nc(C)cc2N1 (single isomer, unassigned) [Example 11 Isomer 2, 7-(3,4-Dichlorophenyl)-2,5-dimethyl-6-(pyridin-2-ylsulfonyl)-4,7-dihydropyrazolo[1,5-a]pyrimidine] | 21.5% | – | –
26 | Cc1cc2nc(C)c(S(=O)(=O)Cc3ccccc3)c(-c3ccc(Cl)c(Cl)c3)n2n1 (racemic) [Example 15, 6-(Benzylsulfonyl)-7-(3,4-dichlorophenyl)-2,5-dimethylpyrazolo[1,5-a]pyrimidine] | – | 8.5% | –
27 | CC1=C(S(=O)(=O)c2ccccc2)C(c2ccc(Cl)c(F)c2)n2nc(C)cc2N1 (single isomer, unassigned) [Example 7 Isomer 2, 7-(4-Chloro-3-fluorophenyl)-2,5-dimethyl-6-(phenylsulfonyl)-4,7-dihydropyrazolo[1,5-a]pyrimidine] | 32.4% | – | –
28 | CC1=C(S(=O)(=O)N2CCCC2)C(c2cc3ccccc3n2C)n2nc(C(F)(F)F)cc2N1 (racemic) [Example 71, 5-Methyl-7-(1-methyl-1H-indol-2-yl)-6-(pyrrolidin-1-ylsulfonyl)-2-(trifluoromethyl)-4,7-dihydropyrazolo[1,5-a]pyrimidine] | – | 41% | –

Source: patent US7507730B2, “Substituted pyrazolo[1,5-a]pyrimidines as potassium channel activators” (Bristol-Myers Squibb Company, priority 2005, dated 2009)
